Measured values reported in patent publication US7648993B2, “Methods of treating disorders with Group I mGluR antagonists” (Brown University, priority 2001, dated 2010).

Columns and labels:
[1] = system: cultured hippocampal neurons; assay: Immunocytochemical localization of surface synaptic receptors (GluR2, GluR1, NR1, GABAAβ1); format: cell-based, rat; details: for GluR1-positive synapses: cycloheximide 60 μM applied 15 min before DHPG where named
Source text: We next determined if the DHPG-induced increase in internalized AMPARs is accompanied by a net decrease in surface-expressed receptor clusters at synapses. At various intervals after DHPG washout, cells were fixed and surface GluR2 or GluR1 was labeled with N-terminal antibodies without permeabilization. The cultures were then permeabilized, and synapses were labeled using an antibody against the presynaptic marker synapsin I or synaptophysin coupled to the appropriate secondary antibody. Under control conditions, most synapses were immunoreactive for AMPAR clusters (GluR2, 80.6±9.0%; n=10 cells, 200 synapses, FIGS. 5A-D; GluR1, 72.5±4.7%; n=15 cells, 225 synapses; FIGS. 5E and F).
Following experimental treatment, low-density cultures were fixed in 4% paraformaldehyde with 4% sucrose for 5 min. Cultures were rinsed in PBS and then blocked in PBS with 20% fetal bovine serum for 1 h. Cultures were stained with N-terminal receptor antibodies overnight at 4° C. (GluR2, 1:100, Chemicon, Ternecula, California; GluR1, 1:100, gift of R. Huganir; NR1, 1:500, Chemicon MAB363; GABAAβ1, 1:100 Santa Cruz Biologicals, Santa Cruz, Calif.). Cultures were then rinsed in blocking buffer containing 0.1% Triton-X for 20 min and exposed to antibodies directed against presynaptic proteins (synapsin 1, 1:1000, Chemicon; synaptophysin, 1:100, Boehringer Manheim, Irvine, Calif.) for 1 h at room temperature. Cultures were then rinsed and exposed to the appropriate fluorescent secondary antibodies (Jackson Immunoresearch, West Grove, Pa.).
Microscopy was performed with a Nikon E800 microscope using a 60×1.4 NA objective (Melville, N.Y.). Fluorescence images were collected with a Sensys cooled CCD camera and analyzed using IP-Labs software. Additional images were collected with a Olympus Flowview confocal microscope with a 60×1.2 NA objective. All analyses were performed blind to the stimulation history of the culture. Microscopic fields had 1-3 neurons displaying smooth soma and generally healthy morphology with multiple distinct processes. Immunofluorescence was analyzed along the proximal 50 μm of 3 or more dendrites per neuron. Immunoreactive puncta were defined as discrete points along the dendrite with fluorescence intensity twice the background staining of the neuron. Five cells were analyzed per culture and 3-6 cultures were analyzed per condition. Separate controls were performed with each experiment and a Student's t-test was used to determine statistical significance. Data are expressed as puncta per 10 μm of dendrite unless stated otherwise.

[2] = system: high-density cultured hippocampal neurons; assay: Biotinylation and quantitative western blot of surface expressed receptors; format: cell-based, rat; details: DHPG 50 μM, 5 min
Experimental: To confirm the effect of mGluR activation on surface AMPARs using an alternative approach, we treated high-density cultures with DHPG (50 μM, 5 min) or control medium and surface receptors were labeled with biotin 60 minutes later. Biotinylated receptors were precipitated and the ratio of surface to total GluR1 was determined by quantitative western blotting. This biochemical analysis confirmed that surface AMPARs are reduced by DHPG treatment to only 56.8±4.0% of the value in control cultures (n=4 in each treatment group; p<0.01; FIG. 6).
Biotinylation experiments were performed as previously described^35. Briefly, 2-week-old high-density cultured hippocampal neurons were treated with either control medium or 50 μM DHPG for 5 min, and incubated for 1 h at 37° C. to allow endocytosis to occur. The sister cultures were placed on ice to stop endocytosis and washed two times with ice-cold artificial cerebrospinal fluid (ACSF) containing 124 mM NaCl, 5 mM KCl, 1.25 mM NaH2PO4, 26 mM NaHCO3, 0.8 mM MgCl2, 1.8 mM CaCl2, 10 mM dextrose, and saturated with 95% O2, 5% CO2. Cultures were then incubated with ACSF containing 1 mg/ml Sulfo-NHS-LC-Biotin (Pierce Chemical Company, Rockford, Ill.) for 30 min on ice. Cultures were rinsed in TBS to quench the biotin reaction. […] Quantitative western blots were performed on both total and biotinylated (surface) proteins using anti-GluR1 C-terminal (1:1000, Upstate Biotechnology, Lake Placid, N.Y.) and anti-NR1 N-terminal antibodies (1:1000, Chemicon). […] Digital images, produced by densitometric scans of autoradiographs on a ScanJet IIcx (Hewlett Packard, Palo Alto, Calif.) with DeskScan II software (Hewlett Packard), were quantified using NIH Image 1.60 software. The surface/total ratio was calculated for each culture, and treatment groups were compared using a paired t-test. […] For display purposes, the data are expressed as the ratio of DHPG to control values.

[3] = system: hippocampal slices from Fmr1-KO mice and wildtype littermates; assay: DHPG-induced mGluR-LTD of field potentials in hippocampal slices of Fmr1-KO and WT mice; format: cell-based, C57BL/6 congenic mice
Experimental: ACSF at a rate of 2 ml/min.
Fresh stocks were made once a week.

[4] = DHPG 100 μM, 5 min, in APV, 60 min after DHPG

Compound: NC(C(=O)O)c1cc(O)cc(O)c1 (racemic) [DHPG, (RS)-3,5-dihydroxyphenylglycine]
- GluR1-positive synapses ([1]; 15 min after DHPG): 29.3±5.4%
- NR1-positive synapses ([1]; 15 minutes after DHPG treatment): 28±6%
- change in synapsin puncta density (in words) ([1]; 1 h after DHPG): no change
- synapsin-labeled puncta with GABAAβ1 clusters ([1]; 60 min after DHPG treatment): 10.9±2%
- GluR1-positive synapses ([1]; 60 min after DHPG): 20.0±12.0%
- synapses with surface staining for GluR2 ([1]; 1 hour after DHPG treatment): 40.8±11%
- NR1-positive synapses ([1]; 60 minutes after DHPG treatment, with cycloheximide where named): 21±3%
- surface NR1 (surface/total), % of the value in control cultures ([2]; 60 minutes later, cycloheximide 60 μM with DHPG where named): 32.3±8.2%
- surface GluR1 (surface/total), % of the value in control cultures ([2]; biotin labeling 60 minutes later): 56.8±4.0%
- FP slope, % of pre-DHPG baseline, Fmr1-KO mice [3, 4]: 77±3%
- FP slope, % of pre-DHPG baseline, WT mice [3, 4]: 88±4%
- maximal acute depression, % of pre-DHPG baseline values, KO ([3]; DHPG, Fmr1-KO slices): 26±5%
- maximal acute depression, % of pre-DHPG baseline values, WT ([3]; DHPG, WT slices): 36±4%
